Experiments:
[1] = test system: Venturia inaequalis; test: In vivo fungicidal evaluation, Apple Scab (AS); conditions: 200 ppm, plants sprayed before inoculation
[2] = test system: Plasmopara viticola; test: In vivo fungicidal evaluation, Grape Downy Mildew (GDM); conditions: 200 ppm, plants sprayed before inoculation
[3] = test system: Botrytis cinerea; test: In vivo fungicidal evaluation, Pepper Botrytis (PB); conditions: 200 ppm, plants sprayed before inoculation
[4] = test system: Pyricularia oryzae; type: in vivo; conditions: 200 ppm, plants sprayed before inoculation
[5] = test system: Cercospora beticola; test: In vivo fungicidal evaluation, Sugar Beet Cercospora (SBC); conditions: plants sprayed before inoculation
[6] = test system: Alternaria solani; test: In vivo fungicidal evaluation, Tomato Early Blight (TEB); conditions: 200 ppm, plants sprayed before inoculation
[7] = test system: Puccinia recondita f. sp. tritici; test: In vivo fungicidal evaluation, Wheat Leaf Rust (WLR); conditions: 200 ppm, plants sprayed before inoculation
[8] = test system: Erysiphe graminis f. sp. tritici; test: In vivo fungicidal evaluation, Wheat Powdery Mildew (WPM); conditions: 200 ppm, plants sprayed before inoculation
[9] = test system: Rhizoctonia solani; test: In vivo fungicidal evaluation, Rice Sheath Blight (RSB); conditions: 400 ppm, plants sprayed before inoculation
[10] = test system: Cercospora arachidicola; test: In vivo fungicidal evaluation, Peanut Cercospora Early Leaf Spot (PCE); conditions: 400 ppm, plants sprayed before inoculation
[11] = test system: Pseudocercosporella herpotrichoides; test: In vivo fungicidal evaluation, Wheat Eyespot (WES); conditions: 400 ppm, plants sprayed before inoculation
[12] = test system: Fusarium oxysporum f. sp. cucumerinum; test: In vitro fungicidal evaluation, growth inhibition (FUSOXC); type: cell-based; design: scale not given here; conditions: 25 ppm, 3-4 days at 21° C.
Method: (§1) Test compounds are dissolved in acetone and dispersed into cell well plates containing a suspension of ground fungal mycelia in a nutrient broth. Assay plates are incubated for 3-4 days at 21° C. Growth inhibition is measured visually and is rated using the following scale:
(§2) Untreated controls, solvent blanks and reference standards are included in each test.
(§3) Assay fungi include the plant pathogens, Pythium ultimum (Pythul); Rhizoctonia solani (Rhizso); Fusarium oxysporum f. sp. cucumerinum (Fusoxc); and Pseudocercosporella herpotrichoides (Psdche).
(§4) When more than one test is run, the data are averaged.

[13] = test system: Pseudocercosporella herpotrichoides; test: In vitro fungicidal evaluation, growth inhibition (PSDCHE); type: cell-based; design: scale not given here; conditions: 25 ppm, 3-4 days at 21° C.
Method: as §1, §2, §3, §4

[14] = test system: Pythium ultimum; test: In vitro fungicidal evaluation, growth inhibition (PYTHUL); type: cell-based; design: scale not given here; conditions: 25 ppm, 3-4 days at 21° C.
Method: as §1, §2, §3, §4

[15] = test system: Rhizoctonia solani; test: In vitro fungicidal evaluation, growth inhibition (RHIZSO); type: cell-based; design: scale not given here; conditions: 25 ppm, 3-4 days at 21° C.
Method: as §1, §2, §3, §4

[16] = test system: Mycosphaerella fijiensis; test: Control of banana black sigatoka on banana seedlings; type: in vivo; conditions: 200 ppm, leaves sprayed to run-off; 28 to 40 days post inoculation
Method: Test compounds are dissolved in acetone and diluted with distilled water containing about 0.05% TWEEN 20® to give a concentration of 200 ppm. Banana seedlings at the 6-7 leaf stage are sprayed with test solution on the upper and lower surfaces of the 3 youngest, unfurled leaves to the point of run-off, dried and inoculated with a spore suspension of Mycosphaerella fijiensis. The inoculated banana seedlings are placed outdoors in a plastic tunnel lined with wet jute sacks. The temperature is maintained between about 25° and 32° C. and the relative humidity is maintained between about 85% and 100%. After five days, the banana seedlings are transferred to a partially shaded screenhouse, surrounded with wet jute sacks and misted daily. When disease symptom development is optimal, typically 28 to 40 days post inoculation, the banana seedlings are rated for disease control according to the rating scale shown below. Each test contains inoculated treated plants, inoculated untreated plants and a reference standard. When more than one test is run, the data are averaged.

[17] = test system: Fusarium oxysporium f. sp. cucumerinum; test: Control of soil borne diseases, Cucumber Fusarium Wilt (CUFO); type: in vivo; conditions: 14-18 days after treatment; note: ranges in brackets are in %
Method: (§5) Pasturized soil (100 mL) is added to 6 cm diameter plastic cups without drainage holes and covered with pathogen contaminated soil (30 mL). Ten germinated cucumber seeds are planted on the contaminated soil and the seeds are covered with pasteurized soil (20 mL). Test compounds are dissolved in acetone, diluted with deionized water containing about 0.05% TWEEN 20®, and applied to the pots by drenching the soil surface with 15 mL of test solution. The pots are placed in a greenhouse for disease development. The pots are watered lightly until plants emerge from the soil surface. Disease evaluations are made 14-18 days after treatment according to the rating scale shown below.

[18] = test system: Pythium aphanidermantum; test: Control of soil borne diseases, Cucumber damping-off by Pythium (CUPA); type: in vivo; conditions: 14-18 days after treatment; note: ranges in brackets are in %
Method: as §5

[19] = test system: Rhizoctonia solani; test: Control of soil borne diseases, Cucumber damping-off by Rhizoctonia (CURS); type: in vivo; conditions: 14-18 days after treatment; note: ranges in brackets are in %
Method: as §5

Compound	disease control rating, AS [1]	disease control rating, GDM [2]	disease control rating, PB [3]	disease control rating, RB [4]	disease control rating, SBC ([5]; 200 ppm)	disease control rating, SBC ([5]; 400 ppm)	disease control rating, TEB [6]	disease control rating, WLR [7]	disease control rating, WPM [8]	disease control rating, RSB [9]	growth inhibition rating, FUSOXC [12]	growth inhibition rating, PSDCHE [13]	growth inhibition rating, PYTHUL [14]	growth inhibition rating, RHIZSO [15]	disease control rating, CUFO ([17]; 2.5 kg/ha soil drench)	disease control rating, CUFO ([17]; 5.0 kg/ha soil drench)	disease control rating, CUFO ([17]; 10.0 kg/ha soil drench)	disease control rating, CUPA ([18]; 2.5 kg/ha soil drench)	disease control rating, CUPA ([18]; 5.0 kg/ha soil drench)	disease control rating, CUPA ([18]; 10.0 kg/ha soil drench)	further results
CN([O-])C(=S)C(=O)C(C)(C)C.CN([O-])C(=S)C(=O)C(C)(C)C.[Cu+2] [N,3,3-trimethyl-2-oxo-1-thiobutyrohydroxamic acid copper(+2) chelate]	8.0	7.7	6.5	0.0	7.2	6.1	9.0	6.5	5.0	4.7	4.8	8.5	8.0	8.5	3 (30-40)	5 (60-70)	6 (75-85)	1 (5-10)	2 (15-25)	1 (5-10)	disease control rating, PCE [10]: 7.0; disease control rating, WES [11]: 6.7; Control of Banana Black Sigatoka (rating) [16]: 6.3; disease control rating, CURS ([19]; 2.5 kg/ha soil drench): 5 (60-70); disease control rating, CURS ([19]; 5.0 kg/ha soil drench): 6 (75-85); disease control rating, CURS ([19]; 10.0 kg/ha soil drench): 9 (100)
CN(O)C(=S)C(=O)C(C)(C)C [N,3,3-trimethyl-2-oxo-1-thiobutyrohydroxamic acid]	5.0	4.3	3.0	2.7	7.0	3.5	2.7	1.7	6.3	0.3	0.0	1.0	6.0	6.0	1 (5-10)	0 (0)	1 (5-10)	2 (15-25)	2 (15-25)	3 (30-40)	Control of Banana Black Sigatoka (rating) [16]: 3.7; disease control rating, CURS ([19]; 2.5 kg/ha soil drench): 2 (15-25); disease control rating, CURS ([19]; 5.0 kg/ha soil drench): 5 (60-70); disease control rating, CURS ([19]; 10.0 kg/ha soil drench): 7 (90)
CN([O-])C(=S)C(=O)C(C)(C)C.CN([O-])C(=S)C(=O)C(C)(C)C.CN([O-])C(=S)C(=O)C(C)(C)C.[Fe+3] [N,3,3-trimethyl-2-oxo-1-thiobutyrohydroxamic acid iron(+3) chelate]	9.0	8.5	6.0	0.0	8.2	6.8	9.0	6.5	5.5	3.3	1.3	2.5	8.0	4.5	1 (5-10)	2 (15-25)	3 (30-40)	0 (0)	1 (5-10)	2 (15-25)	disease control rating, CURS ([19]; 2.5 kg/ha soil drench): 4 (45-55); disease control rating, CURS ([19]; 5.0 kg/ha soil drench): 6 (75-85); disease control rating, CURS ([19]; 10.0 kg/ha soil drench): 9 (100)
CN(O)C(=S)C(=O)C(C)(C)C.CN(O)C(=S)C(=O)C(C)(C)C.[Mn+2] [N,3,3-trimethyl-2-oxo-1-thiobutyrohydroxamic acid manganese(+2) chelate]	8.5	5.5	8.5	3.0	7.5	–	8.5	6.5	7.0	0.0	0.0	7.0	6.0	4.5	–	–	–	–	–	–	–
CN([O-])C(=S)C(=O)C(C)(C)C.CN([O-])C(=S)C(=O)C(C)(C)C.[Zn+2] [N,3,3-trimethyl-2-oxo-1-thiobutyrohydroxamic acid zinc(+2) chelate]	9.0	9.0	8.5	8.0	8.4	7.5	8.5	7.5	3.0	6.0	4.5	4.0	8.5	4.5	2 (15-25)	1 (5-10)	4 (45-55)	0 (0)	2 (15-25)	4 (45-55)	disease control rating, CURS ([19]; 2.5 kg/ha soil drench): 4 (45-55); disease control rating, CURS ([19]; 5.0 kg/ha soil drench): 6 (75-85); disease control rating, CURS ([19]; 10.0 kg/ha soil drench): 9 (100)

— US5342980A, “Fungicidal agents” (American Cyanamid Company, priority 1992, dated 1994)
